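Step 1: Grow cells in 96-well plates. Step 2: Expose to compound for 48 hours at 5 concentrations. Step 3: Interpolate endpoints linearly; if unreached, use highest concentration. TGI marks complete inhibition of growth.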
Assays:
Assay in all cases: NCI-60 cell line screen, 48 h
786-0 renal = test system: 786-0 renal
A498 renal = test system: A498 renal
A549 NSCLC = test system: A549 NSCLC
ACHN renal = test system: ACHN renal
CCRF-CEM leukemia = test system: CCRF-CEM leukemia
COLO 205 colon = test system: COLO 205 colon
DU-145 prostate = test system: DU-145 prostate
EKVX NSCLC = test system: EKVX NSCLC
HCC-2998 colon = test system: HCC-2998 colon
HCT-15 colon = test system: HCT-15 colon
HL-60(TB) leukemia = test system: HL-60(TB) leukemia
HOP-62 NSCLC = test system: HOP-62 NSCLC
HOP-92 NSCLC = test system: HOP-92 NSCLC
HS 578T breast = test system: HS 578T breast
HT29 colon = test system: HT29 colon
K-562 leukemia = test system: K-562 leukemia
KM12 colon = test system: KM12 colon
LOX IMVI melanoma = test system: LOX IMVI melanoma
M14 melanoma = test system: M14 melanoma
MALME-3M melanoma = test system: MALME-3M melanoma
MCF7 breast = test system: MCF7 breast
MDA-MB-231 breast = test system: MDA-MB-231 breast
MDA-MB-435 = test system: MDA-MB-435
MDA-N = test system: MDA-N
MOLT-4 leukemia = test system: MOLT-4 leukemia
NCI-H226 lung = test system: NCI-H226 lung
NCI-H23 lung = test system: NCI-H23 lung
NCI-H460 lung = test system: NCI-H460 lung
NCI/ADR-RES ovarian = test system: NCI/ADR-RES ovarian
OVCAR-3 ovarian = test system: OVCAR-3 ovarian
OVCAR-4 ovarian = test system: OVCAR-4 ovarian
OVCAR-5 ovarian = test system: OVCAR-5 ovarian
OVCAR-8 ovarian = test system: OVCAR-8 ovarian
PC-3 prostate = test system: PC-3 prostate
RPMI-8226 leukemia = test system: RPMI-8226 leukemia
SF-268 CNS = test system: SF-268 CNS
SF-295 CNS = test system: SF-295 CNS
SF-539 CNS = test system: SF-539 CNS
SK-MEL-2 melanoma = test system: SK-MEL-2 melanoma
SK-MEL-28 melanoma = test system: SK-MEL-28 melanoma
SK-MEL-5 melanoma = test system: SK-MEL-5 melanoma
SK-OV-3 ovarian = test system: SK-OV-3 ovarian
SN12C renal = test system: SN12C renal
SNB-19 CNS = test system: SNB-19 CNS
SR leukemia = test system: SR leukemia
SW-620 colon = test system: SW-620 colon
T-47D breast = test system: T-47D breast
TK-10 renal = test system: TK-10 renal
U251 CNS = test system: U251 CNS
UACC-257 melanoma = test system: UACC-257 melanoma
UACC-62 melanoma = test system: UACC-62 melanoma
UO-31 renal = test system: UO-31 renal
BT-549 breast = test system: BT-549 breast
CAKI-1 renal = test system: CAKI-1 renal
HCT-116 colon = test system: HCT-116 colon
IGROV1 ovarian = test system: IGROV1 ovarian
NCI-H522 lung = test system: NCI-H522 lung
RXF 393 renal = test system: RXF 393 renal
SNB-75 CNS = test system: SNB-75 CNS

Oc1ccc(O)c(Cc2ccccc2)c1
TGI (786-0 renal): 33.7 µM | TGI (A498 renal): > 100 µM | TGI (A549 NSCLC): > 100 µM | TGI (ACHN renal): 28.7 µM | TGI (CCRF-CEM leukemia): > 100 µM | TGI (COLO 205 colon): 32.6 µM | TGI (DU-145 prostate): 22.8 µM | TGI (EKVX NSCLC): > 100 µM | TGI (HCC-2998 colon): > 100 µM | TGI (HCT-15 colon): 29.1 µM | TGI (HL-60(TB) leukemia): 4.14 µM | TGI (HOP-62 NSCLC): 60.3 µM | TGI (HOP-92 NSCLC): 35.6 µM | TGI (HS 578T breast): > 100 µM | TGI (HT29 colon): > 100 µM | TGI (K-562 leukemia): 25.8 µM | TGI (KM12 colon): 65.2 µM | TGI (LOX IMVI melanoma): 41 µM | TGI (M14 melanoma): 73.9 µM | TGI (MALME-3M melanoma): 88.9 µM | TGI (MCF7 breast): 29.4 µM | TGI (MDA-MB-231 breast): 46.6 µM | TGI (MDA-MB-435): 42 µM | TGI (MDA-N): 41.5 µM | TGI (MOLT-4 leukemia): 22.8 µM | TGI (NCI-H226 lung): 57.2 µM | TGI (NCI-H23 lung): > 100 µM | TGI (NCI-H460 lung): 49.5 µM | TGI (NCI/ADR-RES ovarian): 42.9 µM | TGI (OVCAR-3 ovarian): 7.8 µM | TGI (OVCAR-4 ovarian): 27.2 µM | TGI (OVCAR-5 ovarian): > 100 µM | TGI (OVCAR-8 ovarian): 33.9 µM | TGI (PC-3 prostate): > 100 µM | TGI (RPMI-8226 leukemia): 21.3 µM | TGI (SF-268 CNS): 27.8 µM | TGI (SF-295 CNS): > 100 µM | TGI (SF-539 CNS): 23 µM | TGI (SK-MEL-2 melanoma): 37.3 µM | TGI (SK-MEL-28 melanoma): > 100 µM | TGI (SK-MEL-5 melanoma): 37.9 µM | TGI (SK-OV-3 ovarian): > 100 µM | TGI (SN12C renal): 38.6 µM | TGI (SNB-19 CNS): > 100 µM | TGI (SR leukemia): 14.5 µM | TGI (SW-620 colon): 56.9 µM | TGI (T-47D breast): 11.8 µM | TGI (TK-10 renal): 51.3 µM | TGI (U251 CNS): 45.8 µM | TGI (UACC-257 melanoma): 99.5 µM | TGI (UACC-62 melanoma): 56.1 µM | TGI (UO-31 renal): 28.4 µM

O=C(CSc1nnc(SCC(=O)NN=C2CCCCC2)s1)NN=C1CCCCC1
TGI (786-0 renal): > 100 µM | TGI (A498 renal): > 100 µM | TGI (A549 NSCLC): > 100 µM | TGI (ACHN renal): > 100 µM | TGI (BT-549 breast): > 100 µM | TGI (CAKI-1 renal): > 100 µM | TGI (CCRF-CEM leukemia): > 100 µM | TGI (COLO 205 colon): > 100 µM | TGI (DU-145 prostate): > 100 µM | TGI (EKVX NSCLC): > 100 µM | TGI (HCC-2998 colon): > 100 µM | TGI (HCT-116 colon): > 100 µM | TGI (HCT-15 colon): > 100 µM | TGI (HOP-62 NSCLC): > 100 µM | TGI (HOP-92 NSCLC): > 100 µM | TGI (HT29 colon): > 100 µM | TGI (IGROV1 ovarian): > 100 µM | TGI (K-562 leukemia): > 100 µM | TGI (KM12 colon): > 100 µM | TGI (LOX IMVI melanoma): > 100 µM | TGI (M14 melanoma): > 100 µM | TGI (MALME-3M melanoma): > 100 µM | TGI (MCF7 breast): > 100 µM | TGI (MDA-MB-231 breast): > 100 µM | TGI (MDA-MB-435): > 100 µM | TGI (MDA-N): > 100 µM | TGI (MOLT-4 leukemia): > 100 µM | TGI (NCI-H226 lung): > 100 µM | TGI (NCI-H23 lung): > 100 µM | TGI (NCI-H460 lung): > 100 µM | TGI (NCI-H522 lung): > 100 µM | TGI (NCI/ADR-RES ovarian): > 100 µM | TGI (OVCAR-3 ovarian): > 100 µM | TGI (OVCAR-4 ovarian): > 100 µM | TGI (OVCAR-5 ovarian): > 100 µM | TGI (OVCAR-8 ovarian): > 100 µM | TGI (PC-3 prostate): > 100 µM | TGI (RPMI-8226 leukemia): > 100 µM | TGI (RXF 393 renal): > 100 µM | TGI (SF-268 CNS): > 100 µM | TGI (SF-295 CNS): > 100 µM | TGI (SF-539 CNS): > 100 µM | TGI (SK-MEL-28 melanoma): > 100 µM | TGI (SK-MEL-5 melanoma): > 100 µM | TGI (SK-OV-3 ovarian): > 100 µM | TGI (SN12C renal): > 100 µM | TGI (SNB-19 CNS): > 100 µM | TGI (SNB-75 CNS): > 100 µM | TGI (SR leukemia): > 100 µM | TGI (SW-620 colon): > 100 µM | TGI (T-47D breast): > 100 µM | TGI (TK-10 renal): > 100 µM | TGI (U251 CNS): > 100 µM | TGI (UACC-257 melanoma): > 100 µM | TGI (UACC-62 melanoma): > 100 µM | TGI (UO-31 renal): > 100 µM
